Assay results reported in patent publication US4205086A, “Method for the treatment of gallstones” (priority 1977, dated 1980).
Read-outs that look alike come from different tables or passages of the source. One block for each compound: values may come before it.

Experiments:
[1] = cited from earlier work; for tolerability by patients / toxicity: organic solvents; for solubilizing capacity for gallstones: 100-200 mM solutions
[2] = treatment of gallstones by perfusion, general results in practice; type: in vivo, human (patient); details: for solvency for the gallstones: in vivo; for results in treatment of gallstones: perfusion
Excerpt: In accordance with the method of the present invention a selected compound is perfused adjacent the gallstone. For the purposes herein, the term perfusion is intended to encompass the introduction of the compound in a manner that will cause the compound to pass over or around the subject gallstone, and includes equivalent terms such as infusion. The perfusion may be accomplished in accordance with normal procedures, and for example may be performed with a T-tube or an endoscope. The compound utilized by the present invention thereby contacts and gradually dissolves the gallstone. The response of the gallstone to this procedure may be followed, for example, by repeated cholangiograms.
A compound useful in accordance with the method of the present invention may also comprise a mixture of fatty acids and alcohol esters of fatty acids. Typically the fatty acid esters would be esters of the same fatty acids which exist separately in the solution, although such is not required. It is preferred that the fatty acids which exist either as themselves or in the ester form have from about 2 to about 12 carbon atoms, with from about 8 to about 10 carbon atoms being more preferred. In a most preferred embodiment of the present invention, the method comprises the perfusion of a compound having a mixture of fatty acids from about 8 to about 10 carbon atoms and alcohol esters, particularly glycerides, of fatty acids having from about 8 to about 10 carbon atoms. […].

[3] = studies evaluating the solubility of gallstones in a variety of compounds (Example 3); details: observed for several days
Description: Studies are conducted to evaluate the solubility of gallstones in a variety of compounds.

[4] = viscosity of compounds used for perfusion (in words); type: physicochemical
Excerpt: It is also preferable that the compound not be excessively viscous at the perfusion temperature in view of the need for the compound to move through the perfusion equipment and to pass over or around the gallstone. The degree of viscosity which is tolerable, and the compounds therefore useful in the present invention, may be readily determined by experiment. […] Fatty acids useful in the present invention are generally those having short to medium carbon chain lengths, or from about 2 to about 12 carbon atoms. […]. As previously mentioned, these fatty acids which have melting points above body temperature, which is approximately 37° C., may be combined with the fatty acids which are liquid at body temperature to provide a liquid mixture having relatively low proportions of the higher fatty acids.

[5] = test comparing the solubility of gallstones in glycerol mono-octanoate and 200 mM sodium cholate (Example 2); design: species or system human (patient); details: six days; sodium cholate 200 mM, mono-octanoate solution as in Example 1

Compound: CCOCC [ether]
tolerability by patients ([1]; prior art): poorly tolerated
toxicity ([1]; prior art): potentially toxic
results in dissolution of gallstones ([1]; prior art): without highly favorable results

Compound: Oxycholic acid
solubilizing capacity for gallstones ([1]; prior art): definite but low
bile acid diarrhea ([1]; in vivo): often with bile acid diarrhea
time to disappearance of distal common bile duct stones ([1]; uncontrolled studies): 1-4 weeks

viscosity [4]: low viscosity
Compound: CCCCCCCC(=O)OCC(O)CO (stereo not shown) [glycerol mono-octanoate]
solvency for the gallstones [2]: high solvency
results in treatment of gallstones [2]: excellent results
results in treatment of gallstones ([2]; listed as mono-glyceride of octanoic acid): particularly excellent results
solubility of gallstones in the compound [3]: suitably soluble
tolerability and adverse symptoms or effects (human, in vivo): tolerated the procedure well and showed no adverse symptoms or effects
stones on follow-up after six days of perfusion (perfused at 5 ml per hour, after six days, patient): only two very small lucencies were apparent
stones on follow-up after 3 additional days of perfusion (perfused at 5 ml per hour, six days plus 3 additional days, patient): no evidence of the stones
results of similar clinical trials (similar clinical trials at the Mayo Clinic): equally good results

Compound: ClC(Cl)Cl [chloroform]
tolerability by patients ([1]; prior art): poorly tolerated
toxicity ([1]; prior art): potentially toxic

Compound: CCCCCCCC(=O)OCCO [ethylene glycol mono-octanoate]
solubility of gallstones in the compound [3]: suitably soluble

Compound: glycerol di-decanoate
solubility of gallstones in the compound [3]: suitably soluble

Compound: CCCCCCCCCC(=O)OCCCC [butanol decanoate]
solubility of gallstones in the compound [3]: suitably soluble

Compound: C=C(C)[C@H]1CC=C(C)CC1 [d-limonene]
tolerability by patients ([1]; prior art): poorly tolerated
toxicity ([1]; prior art): potentially toxic
results in dissolution of gallstones ([1]; prior art): without highly favorable results

Compound: C[C@H](CCC(=O)O)[C@H]1CC[C@H]2[C@@H]3[C@H](O)C[C@@H]4C[C@H](O)CC[C@]4(C)[C@H]3CC[C@]12C [Kenodeoxycholic acid]
results in dissolution of gallstones ([1]; prior art): more preferable, but also is relatively slow

Compound: CCCCCCCC(=O)OCC [ethanol octanoate]
solubility of gallstones in the compound [3]: suitably soluble

Compound: CCCCCCCC(=O)OCC(COC(=O)CCCCCCC)OC(=O)CCCCCCC [glycerol tri-octanoate]
solubility of gallstones in the compound [3]: suitably soluble

Compound: heparin
fragmentation or dissolution of gallstones ([1]; in saline solution, prior art): function poorly

Compound: C[C@H](CCC(=O)O)[C@H]1CC[C@H]2[C@@H]3[C@H](O)C[C@@H]4C[C@H](O)CC[C@]4(C)[C@H]3C[C@H](O)[C@]12C [sodium cholate]
solubilizing capacity for gallstones ([1]; prior art): definite but low
bile acid diarrhea ([1]; uncontrolled studies): often with bile acid diarrhea
time to disappearance of distal common bile duct stones ([1]; uncontrolled studies): 1-4 weeks
change in size of stones [5]: little or no apparent change

Compound: propylene glycol mono-octanoate
solvency for the gallstones [2]: high solvency
results in treatment of gallstones [2]: particularly excellent results
viscosity [4]: low viscosity
